Data published in PubChem BioAssay (NCI).
Several values for one entry are separate records, joined by “and”; a condition that tells them apart may be missing. Identical values can stand only once.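 Following 48 hours of exposure in 96-well plates, responses at five concentrations were used to interpolate endpoints linearly. GI50 marks 50% less growth. TGI is the concentration that stops growth completely.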

Key:
Test in all cases: NCI tumour cell line growth inhibition, 48 h
786-0 renal = tested on: 786-0 renal
A498 renal = tested on: A498 renal
A549 NSCLC = tested on: A549 NSCLC
ACHN renal = tested on: ACHN renal
BT-549 breast = tested on: BT-549 breast
CAKI-1 renal = tested on: CAKI-1 renal
CCRF-CEM leukemia = tested on: CCRF-CEM leukemia
COLO 205 colon = tested on: COLO 205 colon
DLD-1 colon = tested on: DLD-1 colon
DMS 114 small cell lung = tested on: DMS 114 small cell lung
DMS 273 small cell lung = tested on: DMS 273 small cell lung
DU-145 prostate = tested on: DU-145 prostate
EKVX NSCLC = tested on: EKVX NSCLC
HCC-2998 colon = tested on: HCC-2998 colon
HCT-116 colon = tested on: HCT-116 colon
HCT-15 colon = tested on: HCT-15 colon
HL-60(TB) leukemia = tested on: HL-60(TB) leukemia
HOP-18 NSCLC = tested on: HOP-18 NSCLC
HOP-62 NSCLC = tested on: HOP-62 NSCLC
HOP-92 NSCLC = tested on: HOP-92 NSCLC
HS 578T breast = tested on: HS 578T breast
HT29 colon = tested on: HT29 colon
IGROV1 ovarian = tested on: IGROV1 ovarian
K-562 leukemia = tested on: K-562 leukemia
KM12 colon = tested on: KM12 colon
KM20L2 colon = tested on: KM20L2 colon
LOX IMVI melanoma = tested on: LOX IMVI melanoma
LXFL 529 NSCLC = tested on: LXFL 529 NSCLC
M14 melanoma = tested on: M14 melanoma
M19-MEL melanoma = tested on: M19-MEL melanoma
MALME-3M melanoma = tested on: MALME-3M melanoma
MCF7 breast = tested on: MCF7 breast
MDA-MB-231 breast = tested on: MDA-MB-231 breast
MDA-MB-435 = tested on: MDA-MB-435
MDA-N = tested on: MDA-N
MOLT-4 leukemia = tested on: MOLT-4 leukemia
NCI-H226 lung = tested on: NCI-H226 lung
NCI-H23 lung = tested on: NCI-H23 lung
NCI-H460 lung = tested on: NCI-H460 lung
NCI-H522 lung = tested on: NCI-H522 lung
NCI/ADR-RES ovarian = tested on: NCI/ADR-RES ovarian
OVCAR-3 ovarian = tested on: OVCAR-3 ovarian
OVCAR-4 ovarian = tested on: OVCAR-4 ovarian
OVCAR-5 ovarian = tested on: OVCAR-5 ovarian
OVCAR-8 ovarian = tested on: OVCAR-8 ovarian
PC-3 prostate = tested on: PC-3 prostate
RPMI-8226 leukemia = tested on: RPMI-8226 leukemia
RXF 393 renal = tested on: RXF 393 renal
RXF-631 renal = tested on: RXF-631 renal
SF-268 CNS = tested on: SF-268 CNS
SF-295 CNS = tested on: SF-295 CNS
SF-539 CNS = tested on: SF-539 CNS
SK-MEL-2 melanoma = tested on: SK-MEL-2 melanoma
SK-MEL-28 melanoma = tested on: SK-MEL-28 melanoma
SK-MEL-5 melanoma = tested on: SK-MEL-5 melanoma
SK-OV-3 ovarian = tested on: SK-OV-3 ovarian
SN12C renal = tested on: SN12C renal
SNB-19 CNS = tested on: SNB-19 CNS
SNB-75 CNS = tested on: SNB-75 CNS
SNB-78 CNS = tested on: SNB-78 CNS
SR leukemia = tested on: SR leukemia
SW-620 colon = tested on: SW-620 colon
T-47D breast = tested on: T-47D breast
TK-10 renal = tested on: TK-10 renal
U251 CNS = tested on: U251 CNS
UACC-257 melanoma = tested on: UACC-257 melanoma
UACC-62 melanoma = tested on: UACC-62 melanoma
UO-31 renal = tested on: UO-31 renal
XF 498 CNS = tested on: XF 498 CNS
P388 leukemia = tested on: P388 leukemia
P388/ADR leukemia = tested on: P388/ADR leukemia
SN12K1 renal = tested on: SN12K1 renal

## O=c1c2ccccc2n2nnc3ccc(NCCNCCO)c1c32
786-0 renal
  TGI: 11.5 µM
A498 renal
  TGI: 5.52 µM
A549 NSCLC
  TGI: 3.5 µM
ACHN renal
  TGI: 5.89 µM
BT-549 breast
  TGI: 10.1 µM
CAKI-1 renal
  TGI: 10 µM
CCRF-CEM leukemia
  TGI: 14.9 µM
COLO 205 colon
  TGI: 4.09 µM
DLD-1 colon
  TGI: 15.4 µM
DMS 114 small cell lung
  TGI: 13.4 µM
DMS 273 small cell lung
  TGI: 11.1 µM
DU-145 prostate
  TGI: 2700 nM
EKVX NSCLC
  TGI: 8.87 µM
HCC-2998 colon
  TGI: 3.74 µM
HCT-116 colon
  TGI: 10.3 µM
HCT-15 colon
  TGI: 9.42 µM
HL-60(TB) leukemia
  TGI: 5.24 µM
HOP-18 NSCLC
  TGI: 8.67 µM
HOP-62 NSCLC
  TGI: 8.91 µM
HOP-92 NSCLC
  TGI: 6.18 µM
HS 578T breast
  TGI: 6.36 µM
HT29 colon
  TGI: 6.49 µM
IGROV1 ovarian
  TGI: 15.6 µM
K-562 leukemia
  TGI: 21.7 µM
KM12 colon
  TGI: 7.44 µM
KM20L2 colon
  TGI: 8.29 µM
LOX IMVI melanoma
  TGI: 2.6 µM
LXFL 529 NSCLC
  TGI: 14.2 µM
M14 melanoma
  TGI: 5.2 µM
M19-MEL melanoma
  TGI: 8.61 µM
MALME-3M melanoma
  TGI: 7.84 µM
MCF7 breast
  TGI: 14.9 µM
MDA-MB-231 breast
  TGI: 8.18 µM
MDA-MB-435
  TGI: 10.8 µM
MDA-N
  TGI: 10.3 µM
MOLT-4 leukemia
  TGI: 9.64 µM
NCI-H226 lung
  TGI: 5.06 µM
NCI-H23 lung
  TGI: 8.85 µM
NCI-H460 lung
  TGI: 2.83 µM
NCI-H522 lung
  TGI: 7.23 µM
NCI/ADR-RES ovarian
  TGI: 5.96 µM
OVCAR-3 ovarian
  TGI: 5.81 µM
OVCAR-4 ovarian
  TGI: 6.34 µM
OVCAR-5 ovarian
  TGI: 7 µM
OVCAR-8 ovarian
  TGI: 4.74 µM
PC-3 prostate
  TGI: 4.89 µM
RPMI-8226 leukemia
  TGI: 13.7 µM
RXF 393 renal
  TGI: 7.24 µM
RXF-631 renal
  TGI: 9.36 µM
SF-268 CNS
  TGI: 6.46 µM
SF-295 CNS
  TGI: 9.82 µM
SF-539 CNS
  TGI: 14.6 µM
SK-MEL-2 melanoma
  TGI: 10.5 µM
SK-MEL-28 melanoma
  TGI: 10.9 µM
SK-MEL-5 melanoma
  TGI: 4.37 µM
SK-OV-3 ovarian
  TGI: 16.5 µM
SN12C renal
  TGI: 13.1 µM
SNB-19 CNS
  TGI: 17.7 µM
SNB-75 CNS
  TGI: 7.54 µM
SNB-78 CNS
  TGI: 27.6 µM
SR leukemia
  TGI: 8.05 µM
SW-620 colon
  TGI: 6.44 µM
T-47D breast
  TGI: 29.1 µM
TK-10 renal
  TGI: 9.4 µM
U251 CNS
  TGI: 6.73 µM
UACC-257 melanoma
  TGI: 12.3 µM
UACC-62 melanoma
  TGI: 8.68 µM
UO-31 renal
  TGI: 3.78 µM
XF 498 CNS
  TGI: 25.2 µM

## Nc1nc2c(ncn2C2OC(CO)C(O)C2O)c(=O)[nH]1 (centres undefined)
786-0 renal
  GI50: > 100 µM
  TGI: > 100 µM
A498 renal
  TGI: 8.79 µM
A549 NSCLC
  GI50: > 100 µM and 15.8 µM
  TGI: > 100 µM and 170 µM
ACHN renal
  GI50: > 100 µM
  TGI: > 100 µM
CAKI-1 renal
  GI50: 55.5 µM
  TGI: > 100 µM and 214 µM
CCRF-CEM leukemia
  GI50: 13.5 µM
  TGI: > 100 µM and 217 µM
COLO 205 colon
  GI50: > 100 µM
  TGI: > 100 µM and 113 µM
DLD-1 colon
  TGI: 142 µM
DMS 114 small cell lung
  TGI: 214 µM
DMS 273 small cell lung
  TGI: 159 µM
EKVX NSCLC
  GI50: > 100 µM
  TGI: > 100 µM and 146 µM
HCC-2998 colon
  GI50: 78.7 µM
  TGI: > 100 µM and 245 µM
HCT-116 colon
  GI50: > 100 µM
  TGI: > 100 µM and 201 µM
HCT-15 colon
  GI50: > 100 µM and 20.7 µM
  TGI: > 100 µM and 191 µM
HL-60(TB) leukemia
  GI50: > 100 µM
  TGI: > 100 µM and 99.7 µM
HOP-18 NSCLC
  TGI: 300 µM
HOP-62 NSCLC
  TGI: 211 µM
HOP-92 NSCLC
  GI50: > 100 µM and 82.5 µM
  TGI: > 100 µM and 263 µM
HT29 colon
  GI50: > 100 µM
  TGI: > 100 µM and 196 µM
IGROV1 ovarian
  GI50: > 100 µM
  TGI: > 100 µM and 170 µM
K-562 leukemia
  GI50: > 100 µM
  TGI: > 100 µM and 233 µM
KM12 colon
  GI50: > 100 µM
  TGI: > 100 µM and 224 µM
KM20L2 colon
  TGI: 214 µM
LOX IMVI melanoma
  GI50: > 100 µM
  TGI: > 100 µM and 145 µM
M19-MEL melanoma
  TGI: 206 µM
MALME-3M melanoma
  GI50: 24.1 µM and 176 µM
  TGI: 55.4 µM and 285 µM
MCF7 breast
  GI50: > 100 µM
  TGI: > 100 µM and 223 µM
MDA-MB-231 breast
  GI50: > 100 µM
  TGI: > 100 µM
MDA-MB-435
  GI50: > 100 µM
  TGI: > 100 µM
MOLT-4 leukemia
  GI50: 35.7 µM
  TGI: > 100 µM and 121 µM
NCI-H226 lung
  TGI: 224 µM
NCI-H23 lung
  TGI: 175 µM
NCI-H460 lung
  GI50: > 100 µM and 15.5 µM
  TGI: > 100 µM and 154 µM
NCI-H522 lung
  GI50: > 100 µM
  TGI: > 100 µM and 149 µM
NCI/ADR-RES ovarian
  GI50: > 100 µM
  TGI: > 100 µM and 238 µM
OVCAR-3 ovarian
  TGI: 235 µM
OVCAR-4 ovarian
  GI50: > 100 µM
  TGI: > 100 µM and 215 µM
OVCAR-5 ovarian
  TGI: > 100 µM and 291 µM
OVCAR-8 ovarian
  GI50: > 100 µM and 15 µM
  TGI: > 100 µM and 204 µM
P388 leukemia
  TGI: 44.5 µM
P388/ADR leukemia
  TGI: 80.3 µM
PC-3 prostate
  GI50: > 100 µM
  TGI: > 100 µM
RPMI-8226 leukemia
  GI50: > 100 µM and 30.8 µM
  TGI: > 100 µM and 139 µM
RXF 393 renal
  TGI: 162 µM
SF-268 CNS
  GI50: > 100 µM
  TGI: > 100 µM and 281 µM
SF-295 CNS
  TGI: > 100 µM and 184 µM
SF-539 CNS
  GI50: > 100 µM
  TGI: > 100 µM and 160 µM
SK-MEL-2 melanoma
  GI50: > 100 µM
  TGI: > 100 µM and 158 µM
SK-MEL-28 melanoma
  TGI: > 100 µM and 265 µM
SK-MEL-5 melanoma
  GI50: > 100 µM
  TGI: > 100 µM and 103 µM
SK-OV-3 ovarian
  TGI: > 100 µM and 263 µM
SN12C renal
  GI50: > 100 µM
  TGI: > 100 µM and 162 µM
SN12K1 renal
  TGI: 259 µM
SNB-19 CNS
  TGI: > 100 µM and 21.6 µM
SNB-75 CNS
  GI50: > 100 µM
  TGI: > 100 µM and 38 µM
SNB-78 CNS
  TGI: 300 µM
SR leukemia
  GI50: > 100 µM
  TGI: > 100 µM
SW-620 colon
  GI50: > 100 µM
  TGI: > 100 µM and 241 µM
T-47D breast
  GI50: > 100 µM
  TGI: > 100 µM
U251 CNS
  GI50: > 100 µM
  TGI: > 100 µM and 237 µM
UACC-257 melanoma
  GI50: > 100 µM and 20.8 µM
  TGI: > 100 µM and 282 µM
UACC-62 melanoma
  GI50: > 100 µM
  TGI: > 100 µM and 175 µM
UO-31 renal
  GI50: > 100 µM
  TGI: > 100 µM and 204 µM
